Measurements taken from patent EP0590721A1, “Method for expressing receptors of the human nervous system in the yeast Schizosaccharomyces pombe” (ENICHEM S.p.A., priority 1992, dated 1994).

Molecular target: chimeric protein STE2-β₂AR (Homo sapiens, UniProt P07550)
Conditions: (125I)-CYP 20 pM, competitor 10⁻⁹ M to 10⁻³ M, 37°C one hour, TNE

CNC[C@H](O)c1ccc(O)c(O)c1 [epinephrine]
inhibition efficiency order: alprenolol > isoproterenol > epinephrine
